Drawing on patent US6670371B2, “Certain pyrrolopyridine derivatives: novel CRF1 specific ligands” (Neurogen Corporation, priority 1995, dated 2003), this text covers melting point and IC50 for one compound.

One series concerns the target T1, CRF receptors (Homo sapiens, UniProt P34998).
T1 sequence (P34998 24-415): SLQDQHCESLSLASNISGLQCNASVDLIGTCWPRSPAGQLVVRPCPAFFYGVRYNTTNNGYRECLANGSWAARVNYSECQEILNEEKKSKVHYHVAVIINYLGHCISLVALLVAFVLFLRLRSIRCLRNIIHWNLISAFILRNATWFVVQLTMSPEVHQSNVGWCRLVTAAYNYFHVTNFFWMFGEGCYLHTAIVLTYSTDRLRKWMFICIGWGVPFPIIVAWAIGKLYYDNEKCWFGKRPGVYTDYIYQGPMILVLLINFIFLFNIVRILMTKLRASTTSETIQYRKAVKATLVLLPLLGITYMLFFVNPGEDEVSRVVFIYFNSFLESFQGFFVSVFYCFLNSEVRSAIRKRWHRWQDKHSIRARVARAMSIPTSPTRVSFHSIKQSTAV
The series is described as follows: CRF receptor binding assay (125I-CRF displacement). Particulars: membrane pellets containing CRF receptors; 125I-CRF 100 pM; room temperature for 2 hours; non specific binding defined by 1 uM cold CRF. The protocol: Assay for CRF Receptor Binding Activity
CRF receptor binding was performed using a modified version of the assay described by Grigoriadis and De Souza (Biochemical, Pharmacological, and Autoradiographic Methods to Study Corticotropin-Releasing Factor Receptors. Methods in Neurosciences, Vol. 5, 1991). Membrane pellets containing CRF receptors were resuspended in 50 mM Tris buffer pH 7.7 containing 10 mM MgCl2 and 2 mM EGTA and centrifuged for 10 minutes at 48000 g. Membranes were washed again and brought to a final concentration of 1500 ug/ml in binding buffer (Tris buffer above with 0.1% BSA, n 0.15 M bacitracin and 0.01 mg/ml aprotinin.). For the binding assay, 100 ul of the membrane preparation was added to 96 well microtube plates containing 100 ul of 125I-CRF (SA 2200 Ci/mmol, final concentration of 100 pM) and 50 ul of drug. Binding was carried out at room temperature for 2 hours. Plates were then harvested on a Brandel 96 well cell harvester and filters were counted for gamma emissions on a Wallac 1205 Betaplate liquid scintillation counter. Non specific binding was defined by 1 uM cold CRF.

The compound `CCCN(CCC)c1cc(C)nc2c1c1c(n2-c2c(C)cc(C)cc2C)CCCC1` [Compound 1, N,N-Dipropyl-2-methyl-6,7,8,9-tetrahydro-9-(2,4,6-trimethylphenyl)-5H-pyrido[2,3-b]indol-4-amine] returned a melting point of 117 to 118 °C. Besides, at CRF receptors, the half-maximal inhibitory concentration (IC50) turned out to be 11 nM.
